From PubChem BioAssay (NCI)
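Interpolation was linear, between the two tested concentrations surrounding the appropriate level; five concentrations were tested over 48 hours in 96-well plates. TGI denotes the concentration required for complete inhibition of growth.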

Experiments:
Experiment in all cases: DTP human tumour cell line panel, 48 h
[1] = system: CAKI-1 renal
[2] = system: HCT-116 colon
[3] = system: HCT-15 colon
[4] = system: OVCAR-3 ovarian
[5] = system: OVCAR-4 ovarian
[6] = system: SF-268 CNS
[7] = system: SK-MEL-2 melanoma
[8] = system: TK-10 renal
[9] = system: UACC-62 melanoma

Row | SMILES | TGI [1] [µM] | TGI [2] [µM] | TGI [3] [µM] | TGI [4] [µM] | TGI [5] [µM] | TGI [6] [µM] | TGI [7] [µM] | TGI [8] [µM] | TGI [9] [µM]
1 | Cc1cc(NS(=O)(=O)c2ccc(NC(=O)c3ccc(Cl)c4c(Nc5ccc(S(=O)(=O)Nc6cc(C)on6)cc5)c5ccccc5nc34)cc2)no1 | 30.6 | 27.4 | 43 | 33.4 | 81.8 | 42.3 | 50.5 | 71.1 | 34.3
2 | CC(C)(C)c1cc(C2c3cc4c(cc3OC(O)(CO)C2C(=O)O)OCO4)cc(C(C)(C)C)c1O (configuration not stated) (tested in a mixture with another compound) | 50.3 | 21.2 | 26 | 18.9 | 25.6 |  |  | 45.4 | 18.8
3 | CC(C)(C)C1=CC(=N/N=c2\scc(-c3ccccc3)n2Cc2ccccc2)C=C(C(C)(C)C)C1=O | > 100 | > 100 | > 100 | > 100 | > 100 | > 100 | > 100 |  | > 100
4 | N#CN1CC[C@@H]2CC3(CCC2C1)OCCO3 (some centres not stated) | > 100 | > 100 | > 100 | > 100 | > 100 | > 100 | > 100 | > 100 | > 100
5 | COc1ccc2nc3cc(Cl)ccc3c(Sc3ccc(N)cc3)c2c1 | 29.6 | 17.3 | 20.1 | 21.5 | 29.9 | 34.4 | 27.7 | 25.9 | 17.8
6 | C=CC[P@]1(=O)O[C@H](c2ccccc2)C(C)N1C(C)C (some centres not stated) |  | > 100 | > 100 | > 100 |  | > 100 | > 100 | > 100 | > 100
7 | CC1=CC(=O)NP(=O)(Oc2ccc(Cl)cc2)N1 (configuration not stated) | > 100 | > 100 | > 100 | > 100 | > 100 | > 100 | > 100 | > 100 | > 100
8 | CC(=O)/C=C1\CC(=O)N(C)c2ccccc2N1 | > 100 | > 100 |  | > 100 | > 100 | > 100 | > 100 | > 100 | > 100
9 | O=C(NCCCN1CCN(CCCNC(=O)c2cccc3ccccc23)CC1)c1cccc2ccccc12 | > 100 | > 100 | > 100 | > 100 | > 100 |  | > 100 | > 100 | > 100
10 | O=C1OC(c2ccc([N+](=O)[O-])cc2)=N/C1=C\c1ccc(Cl)cc1 | > 100 | > 100 | > 100 | > 100 | > 100 | > 100 | > 100 | > 100 | > 100
11 | COCN1COCN(C)C1=O | > 100 | > 100 | > 100 | > 100 | > 100 | > 100 | > 100 | > 100 | > 100
12 | Cn1cc(-c2ccc3c4ccccc4n(C)c3c2)c2ccccc21 | > 100 | > 100 | > 100 | > 100 | > 100 | > 100 | > 100 | > 100 | > 100
13 | COC1CCCc2c(OC(C)=O)ccc(OC(C)=O)c21 (configuration not stated) | > 100 | > 100 | > 100 | > 100 | > 100 | > 100 | > 100 | > 100 | > 100
14 | CC(=O)OC1(Sc2ccccc2)CC2[C@H]3COC(C)(C)O[C@H]3CC[C@@]2(C)CC1=O (some centres not stated) | > 100 | > 100 | > 100 | > 100 | > 100 |  | > 100 | > 100 | > 100
15 | O=C(n1c2ccccc2c2n[nH]c(=S)nc21)C(F)(F)F | > 100 | > 100 | > 100 | > 100 | > 100 | > 100 |  | > 100 | > 100
16 | O=c1[nH]c2nc3ccccc3c(=O)n2nc1Cc1ccccc1 | > 100 | > 100 | > 100 | > 100 | > 100 | > 100 | > 100 |  | > 100
17 | CCOC(=O)c1ccc(N=Cc2ccc(N(CCC#N)S(=O)(=O)c3ccccc3)cc2C)cc1 | > 100 | > 100 | > 100 | > 100 | > 100 | > 100 | > 100 | > 100 | > 100
18 | Cc1cccc(NC(=O)c2c(N)[n+]([O-])c3ccccc3[n+]2[O-])c1 | 27.4 | 20.3 |  | 29.1 | 23.3 | 22.8 | 23.3 |  | 
19 | Cc1nc2ccccc2c(=O)n1/N=C(\N=Nc1ccc(Cl)cc1)c1cccc(-c2ccco2)c1 | 98.4 | 95.5 | > 100 |  |  | > 100 |  | > 100 | 87
20 | Cc1c(C)c2cc3c(=O)c(CCl)coc3c(C)c2oc1=O |  | > 100 | > 100 | > 100 |  | > 100 | > 100 | > 100 | > 100
